Data from PubChem BioAssay AID624317 (Sanford-Burnham Center for Chemical Genomics, 2012).
pIC50: −log10 of the molar value.

Target: Probable nicotinate-nucleotide adenylyltransferase (Staphylococcus aureus (strain N315)) (UniProt P65502)
Assay: potency of S. aureus NadD blockers – biochemical, colorimetric, uHTS hits, dose response (AID 624317)
Details: purified NadD enzyme, colorimetric activity assay

pIC50: 4.44
SMILES: C[c-]1[c-](C)[c-](C)[c-](C)[c-]1C.[Fe].c1cc2nccc(N3CCCC3)[c-]2c1 (stereo unspecified)
